# Earlier results, collected in patent publication US20040171613A1, “Therapeutic agent for non-immediate type allergic diseases” (JAPAN TOBACCO INC., priority 2001, published 2004).
# Molecular target: CB2 (Homo sapiens, UniProt P34972)
# Parameters: host or cells: CHO cells expressing CB2
# Details: cited from earlier work
# CB2, sequence (P34972 whole entry, species assumed): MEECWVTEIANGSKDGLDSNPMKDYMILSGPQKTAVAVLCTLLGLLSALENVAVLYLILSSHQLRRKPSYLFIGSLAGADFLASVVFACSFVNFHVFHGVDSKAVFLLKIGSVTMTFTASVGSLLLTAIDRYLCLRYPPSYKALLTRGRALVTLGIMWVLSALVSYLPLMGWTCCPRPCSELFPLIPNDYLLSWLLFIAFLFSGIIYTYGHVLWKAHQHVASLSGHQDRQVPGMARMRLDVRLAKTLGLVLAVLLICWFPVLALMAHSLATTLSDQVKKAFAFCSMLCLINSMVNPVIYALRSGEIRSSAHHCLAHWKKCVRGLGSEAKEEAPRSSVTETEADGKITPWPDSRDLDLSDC
compound,measurement,value
"CCCCCOc1c(OC)ccc2cc(C(=O)NCc3ccc4c(c3)OCO4)c(=O)[nH]c12 [Compound A, N-(benzo[1,3]dioxol-5-ylmethyl)-7-methoxy-2-oxo-8-pentyloxy-1,2-dihydroquinoline-3-carboxamide]",forskolin-stimulated cAMP production,elevate the production of cyclic adenosine-phosphate (cAMP)
